Source: paper PMC13586308, “Cell type–selective targeting by heterobifunctional protein binders via in-cell enrichment” (Nature Communications, 2026)
Read-outs that look alike come from different tables or passages of the source.

How the values were obtained:
[1] = molecular target: T1, BRD3BD2 (Homo sapiens, UniProt Q15059); assay: competitive FP assay, BRD3 BD2 -/+ FKBP12; assay type: binding
T1 construct: to the isolated BD1 and BD2 domains of BRD2, BRD3 and BRD4

[2] = molecular target: T2, His-BRD4^BD2 + eGFP-FKBP12 (Homo sapiens, UniProt O60885+P62942); assay: HTRF ternary complex formation BRD4 BD2 + EGFP-FKBP12; assay type: binding; conditions: eGFP-FKBP12 5 µM, His-BRD4^BD2 100 nM; read-out: HTRF BRD4^BD2 + GFP-FKBP12 Kd
T2 construct: the His6-tag of the respective BD1 or BD2 domain of BRD4 and EGFP-labeled FKBP12

[3] = molecular target: T3, BRD3BD1 (Homo sapiens, UniProt Q15059); assay: competitive FP assay, BRD3 BD1 -/+ FKBP12; assay type: binding
T3 construct: to the isolated BD1 and BD2 domains of BRD2, BRD3 and BRD4

[4] = molecular target: BRD2BD2 (Homo sapiens, UniProt P25440); assay: competitive FP assay, BRD2 BD2 -/+ FKBP12; assay type: binding
[5] = molecular target: BRD4 43-463 (Homo sapiens, UniProt O60885); assay: competitive FP assay, BRD4 tandem bromo domain construct; assay type: binding
[6] = test system: MV4-11 cells; assay: CellTiter-Glo cell viability, MV4-11; assay type: cell-based, human; conditions: five days, without FKBP12 PROTAC; for IC50: Homo sapiens, MV4-11, 120 h, read-out: Cell toxicity (MV4-11) - FKBP12 PROTAC IC50
[7] = molecular target: T4, BRD2BD1 (Homo sapiens, UniProt P25440); assay: competitive FP assay, BRD2 BD1 -/+ FKBP12; assay type: binding
T4 construct: to the isolated BD1 and BD2 domains of BRD2, BRD3 and BRD4

[8] = molecular target: T5, BRD4^BD1 (Homo sapiens, UniProt O60885); assay: competitive fluorescence polarization assay, BRD4 BD1 -/+ presenter protein; assay type: binding; conditions: for α BRD4^BD1 (binding cooperativity factor): ratio of binding in absence or presence of FKBP12
T5 construct: to the isolated BD1 and BD2 domains of BRD2, BRD3 and BRD4

[9] = test system: INA-6 cells; assay: cell viability, INA-6 FKBP12 knockout or NTC; assay type: cell-based, human; conditions: for IC50: Homo sapiens, INA-6
[10] = test system: BRD4 43-463 Y97A; assay: competitive FP assay, BRD4 tandem construct Y97A; assay type: binding
[11] = molecular target: BRD4 43-463 Y97A (Homo sapiens, UniProt O60885, Y97A); assay: competitive FP assay, BRD4 tandem construct Y97A; assay type: binding
[12] = molecular target: FKBP12 (Homo sapiens, UniProt P62942); assay: competitive fluorescence polarization assay, binding to FKBP12; conditions: competitive FP assay
[13] = molecular target: T6, BRD4^BD2 (Homo sapiens, UniProt O60885); assay: competitive fluorescence polarization assay, BRD4 BD2 -/+ presenter protein; assay type: binding; conditions: for α BRD4^BD2 (binding cooperativity factor): ratio of binding in absence or presence of FKBP12
T6 construct: to the isolated BD1 and BD2 domains of BRD2, BRD3 and BRD4

[14] = molecular target: BRD4 43-463 Y390A (Homo sapiens, UniProt O60885, Y390A); assay: competitive FP assay, BRD4 tandem construct Y390A; assay type: binding
[15] = test system: BRD4 43-463 Y390A; assay: competitive FP assay, BRD4 tandem construct Y390A; assay type: binding
[16] = molecular target: T7, His-BRD4^BD1 + eGFP-FKBP12 (Homo sapiens, UniProt O60885+P62942); assay: HTRF ternary complex formation BRD4 BD1 + EGFP-FKBP12; assay type: binding; conditions: eGFP-FKBP12 5 µM, His-BRD4^BD1 100 nM; read-out: HTRF BRD4^BD1 + GFP-FKBP12 Kd
T7 construct: the His6-tag of the respective BD1 or BD2 domain of BRD4 and EGFP-labeled FKBP12

[17] = test system: MYC mRNA; assay: quantitative RT-PCR of MYC mRNA, MV4-11; assay type: cell-based, human; conditions: Homo sapiens, 6 h; MV4-11, six hours, without FKBP12 PROTAC; read-out: MYC mRNA levels IC50
[18] = 15 µM FKBP12, read-out: Binding to BRD3BD2 + FKBP12 Kd
[19] = absence of FKBP12, read-out: Binding to BRD3BD2 - FKBP12 Kd
[20] = 15 µM FKBP12, read-out: Binding to BRD3BD1 + FKBP12 Kd
[21] = absence of FKBP12, read-out: Binding to BRD3BD1 - FKBP12 Kd
[22] = 15 µM FKBP12, read-out: Binding to BRD2BD2 + FKBP12 Kd
[23] = absence of FKBP12, read-out: Binding to BRD2BD2 - FKBP12 Kd
[24] = Binding to BRD4 43-463 + FKBP12 Kd, 15 µM FKBP12
[25] = Binding to BRD4 43-463 - FKBP12 Kd, absence of FKBP12
[26] = 15 µM FKBP12, read-out: Binding to BRD2BD1 + FKBP12 Kd
[27] = absence of FKBP12, read-out: Binding to BRD2BD1 - FKBP12 Kd
[28] = 15 µM FKBP51FK1, read-out: Binding to BRD4BD1 + FKBP51FK1 Kd
[29] = absence of FKBP12, 2 nM JQ1-FL tracer, read-out: Binding to BRD4^BD1 - FKBP12 Kd
[30] = absence of FKBP51FK1 (SI Table 3), read-out: Binding to BRD4BD1 - FKBP51FK1 Kd
[31] = presence of 15 µM FKBP12, read-out: Binding to BRD4^BD1 + FKBP12 Kd (converted)
[32] = values quoted in rebuttal letter (earlier version of Tab. 1), read-out: binding to BRD4BD1 + FKBP12
[33] = FKBP12 knockout cells, read-out: Cell toxicity INA-6 FKBP12 KO IC50
[34] = nontargeted control (NTC) cells, read-out: Cell toxicity INA-6 NTC IC50
[35] = Binding to BRD4 43-463 Y97A + FKBP12 Kd, 15 µM FKBP12
[36] = Binding to BRD4 43-463 Y97A - FKBP12 Kd, absence of FKBP12
[37] = 15 µM FKBP51FK1, read-out: Binding to BRD4BD2 + FKBP51FK1 Kd
[38] = absence of FKBP12, 2 nM JQ1-FL tracer, read-out: Binding to BRD4^BD2 - FKBP12 Kd
[39] = absence of FKBP51FK1 (SI Table 3), read-out: Binding to BRD4BD2 - FKBP51FK1 Kd
[40] = presence of 15 µM FKBP12, read-out: Binding to BRD4^BD2 + FKBP12 Kd (converted)
[41] = Binding to BRD4 43-463 Y390A + FKBP12 Kd, 15 µM FKBP12

T4 sequence (P25440 74-180 limits assumed): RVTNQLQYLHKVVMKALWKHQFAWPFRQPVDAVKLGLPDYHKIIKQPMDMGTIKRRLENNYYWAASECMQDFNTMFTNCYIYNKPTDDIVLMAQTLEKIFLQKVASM
BRD2BD2, sequence (P25440 344-453 limits assumed): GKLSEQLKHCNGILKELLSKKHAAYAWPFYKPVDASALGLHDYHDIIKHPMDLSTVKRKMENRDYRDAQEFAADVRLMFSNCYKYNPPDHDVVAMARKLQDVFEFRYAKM
T3 sequence (Q15059 34-140 limits assumed): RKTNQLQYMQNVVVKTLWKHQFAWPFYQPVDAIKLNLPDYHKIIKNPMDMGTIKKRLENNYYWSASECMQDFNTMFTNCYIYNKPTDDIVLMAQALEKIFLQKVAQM
T1 sequence (Q15059 306-415 limits assumed): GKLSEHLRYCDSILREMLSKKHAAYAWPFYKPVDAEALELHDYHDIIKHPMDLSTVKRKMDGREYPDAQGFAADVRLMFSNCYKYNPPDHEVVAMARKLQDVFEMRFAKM

Row | Structure (SMILES) | α BRD3BD2 [1] | Kd [1, 18] | Kd [1, 19] | Kd [2] | Kd [3, 20] | Kd [3, 21] | α BRD2BD2 [4] | Kd [4, 22] | Kd [4, 23] | Kd [5, 24] | Kd [5, 25] | IC50 [6] | α BRD2BD1 [7] | Kd [7, 26] | Kd [7, 27] | Kd [8, 28] | Kd [8, 29] | Kd [8, 30] | Kd [8, 31] | α BRD4^BD1 (binding cooperativity factor) [8] | further results
1 | Cc1sc2c(c1C)C(c1ccc(Cl)cc1)=NC(CC(=O)NCCOCCn1cc(COCC3CN(C(C)c4ccccn4)C(=O)C4CCCC3N4S(=O)(=O)c3cc(Cl)cc(Cl)c3)nn1)c1nnc(C)n1-2 (centres unmarked) [a1dj] | 1.1 | 150 ± 30 nM | 170 ± 50 nM | 30 ± 7 nM | 25 ± 3 nM | 290 ± 35 nM | 2.9 | 48 ± 17 nM | 140 ± 65 nM | 31 ± 2 nM | 266 ± 16 nM | 0.09 nM | 16 | 38 ± 6 nM | 610 ± 90 nM | 680 ± 100 nM | 470 ± 60 nM | 250 ± 80 nM | 39 nM | 12 | Cell toxicity (MV4-11) - FKBP12 PROTAC IC50 [6]: sub-nanomolar; Kd [8, 32]: 32 nM; Cell toxicity INA-6 FKBP12 KO IC50 ([9]; FKBP12 knockout cells): hardly observable; IC50 [9, 33]: 480 nM; IC50 [9, 34]: 0.4 nM; Cell toxicity INA-6 NTC IC50 ([9]; nontargeted control (NTC) cells): sub-nanomolar; α BRD4 43-463 Y97A [10]: 1.2; Kd [11, 35]: 84 ± 10 nM; Kd [11, 36]: 100 ± 17 nM; Kd [12]: 0.4 nM; Kd [13, 37]: 1000 ± 500 nM; Kd [13, 38]: 400 ± 90 nM; Kd [13, 39]: 150 ± 50 nM; Kd [13, 40]: 90 nM; α BRD4^BD2 (binding cooperativity factor) [13]: 4.4; Kd [14, 41]: 9 ± 1 nM; Kd ([14]; absence of FKBP12): 106 ± 7 nM; α BRD4 43-463 Y390A [15]: 12; Kd [16]: 15 ± 3 nM; IC50 [17]: 5 nM
2 | Cc1sc2c(c1C)C(c1ccc(Cl)cc1)=NC(CC(=O)N1CCC3(CC1)CC(n1cc(C4CN(Cc5ccccn5)C(=O)C5CCCC4N5S(=O)(=O)c4cc(Cl)cc(Cl)c4)nn1)C3)c1nnc(C)n1-2 (centres unmarked) [a13c] | 0.3 | 3000 ± 350 nM | 950 ± 100 nM | 300 ± 30 nM | 56 ± 5 nM | 2600 ± 1000 nM | 1.6 | 600 ± 100 nM | 960 ± 350 nM | 39 ± 3 nM | 790 ± 120 nM | 7.7 nM | 34 | 100 ± 14 nM | 3400 ± 1600 nM | 870 ± 100 nM | 4600 ± 800 nM | 1500 ± 450 nM | 35 nM | 131 | α BRD3BD1 [3]: 46; α BRD4 43-463 [5]: 20; Kd [8, 32]: 20 nM; Cell toxicity INA-6 FKBP12 KO IC50 ([9]; FKBP12 knockout cells): hardly observable; IC50 [9, 33]: > 1600 nM; IC50 [9, 34]: 13 nM; α BRD4 43-463 Y97A [10]: 1.2; Kd [11, 35]: 670 ± 90 nM; Kd [11, 36]: 800 ± 110 nM; Kd [12]: 1.7 nM; Kd [13, 37]: 190 ± 30 nM; Kd [13, 38]: 2300 ± 400 nM; Kd [13, 39]: 1600 ± 400 nM; Kd [13, 40]: 1900 nM; Kd [14, 41]: 15 ± 2 nM; Kd ([14]; absence of FKBP12): 860 ± 140 nM; α BRD4 43-463 Y390A [15]: 57; Kd [16]: 13 ± 2 nM; IC50 [17]: 2.8 nM
3 | Cc1sc2c(c1C)C(c1ccc(C#CCNC(=O)COCCn3cc(C4CN(Cc5ccccn5)C(=O)C5CCCC4N5S(=O)(=O)c4cc(Cl)cc(Cl)c4)nn3)cc1)=NC(CC(=O)OC(C)(C)C)c1nnc(C)n1-2 (centres unmarked) [b3c] | 3.8 | 26 ± 6 nM | 100 ± 30 nM | 8 ± 3 nM | 13 ± 3 nM | 35 ± 7 nM | 38 | 4 ± 2 nM | 150 ± 50 nM | 14 ± 2 nM | 79 ± 5 nM | 0.06 nM | 8.2 | 9 ± 4 nM | 74 ± 20 nM | 50 ± 17 nM | 130 ± 20 nM | 73 ± 20 nM | 8 nM | 16 | α BRD3BD1 [3]: 2.7; α BRD4 43-463 [5]: 5.6; Cell toxicity (MV4-11) - FKBP12 PROTAC IC50 [6]: sub-nanomolar; IC50 [9, 33]: 90 nM; IC50 [9, 34]: 1.8 nM; concentration inducing reduced cell viability in FKBP12-negative cells ([9]; INA-6 FKBP12 knockout): ≥ 100 nM; α BRD4 43-463 Y97A [10]: 8.1; Kd [11, 35]: 22 ± 3 nM; Kd [11, 36]: 178 ± 20 nM; Kd [12]: 3.7 nM; Kd [13, 37]: 250 ± 70 nM; Kd [13, 38]: 150 ± 20 nM; Kd [13, 39]: 120 ± 40 nM; Kd [13, 40]: 13 nM; α BRD4^BD2 (binding cooperativity factor) [13]: 12; Kd [14, 41]: 1.7 ± 0.5 nM; Kd ([14]; absence of FKBP12): 25 ± 4 nM; α BRD4 43-463 Y390A [15]: 15; Kd [16]: 1 ± 0.6 nM; IC50 [17]: 2 nM
